Experimental data reported in patent US20230383320A1, “METHOD FOR PRODUCING MONOUNSATURATED FATTY ACID HAVING 16 CARBON ATOMS” (SHIZUOKA PREFECTURAL UNIVERSITY CORPORATION, priority 2022, published 2023).

test system: Staphylococcus aureus; experiment: not given; details: reported in Non Patent Literature 1; cited from earlier work

Row | Compound | selective antibacterial activity (S. aureus versus S. epidermidis) | antibacterial activity against Staphylococcus aureus
1 | CCCCCCCC/C=C\CCCCCC(=O)O [7-cis-hexadecenoic acid] | selective antibacterial activity similar to sapienic acid | 
2 | CCCCCC/C=C\CCCCCCCC(=O)O [palmitoleic acid] | selective antibacterial activity similar to sapienic acid | 
3 | CCCCCCCCC/C=C\CCCCC(=O)O [sapienic acid] |  | strong antibacterial activity

test system: Bifidobacterium sp. strain JCM7042; experiment: Effect of components added to TOS liquid medium on bifidobacteria growth and 7-cis-C16:1 production; assay type: cell-based; details: component added to TOS liquid medium, amount per liter (0.1 to 10 g); compared to control without the component; 37° C.

Row | Compound | 7-cis-C16:1 Production | Bifidobacteria Growth
4 | O=C([O-])[O-].[Ca+2] [Calcium Carbonate] | Fair | Excellent
5 | Cl.N[C@@H](CS)C(=O)O.O [L-Cysteine Hydrochloride (1-hydrate)] | Excellent | Excellent
6 | CCCCCCCCCCCC(=O)O [Lauric Acid (free form), Lauric Acid] | Poor | Poor
7 | CCCCCCCCCCCC(=O)OC [Lauric Acid Methyl Ester] | Good | Good
8 | CCCCCCCCCCCCCC(=O)O [Myristic Acid (free form), Myristic Acid] | Poor | Poor
9 | CCCCCCCCCCCCCC(=O)OC [Myristic Acid Methyl Ester] | Poor | Poor
10 | CCCCCCCC/C=C\CCCCCCCC(=O)O [Oleic Acid (free form), Oleic Acid] | Poor | Fair
11 | CCCCCCCC/C=C\CCCCCCCC(=O)OC [Oleic Acid Methyl Ester] | Good | Excellent
12 | O=C(O)CC(=O)C(=O)O [Oxaloacetic Acid] | Poor | Good
13 | CCCCCCCCCCCCCCCC(=O)O [Palmitic Acid (free form), Palmitic Acid] | Poor | Poor
14 | CCCCCCCCCCCCCCCC(=O)OC [Palmitic Acid Methyl Ester] | Poor | Poor
15 | O=C([O-])[O-].[K+].[K+] [Potassium Carbonate] | Poor | Poor
16 | O=C([O-])O.[K+] [Potassium Hydrogen Carbonate] | Fair | Poor
17 | O=C([O-])[O-].[Na+].[Na+] [Sodium Carbonate] | Poor | Poor
18 | O=C([O-])O.[Na+] [Sodium Hydrogen Carbonate] | Poor | Poor
19 | Anisidine | Good | Good
20 | Polysorbate 80 | Poor | Good
21 | Tergitol NP40 | Good | Good
22 | Triton X-100 | Poor | Poor

test system: Bifidobacterium sp. strain JCM7042; experiment: L-cysteine concentration in MRS liquid medium, production of 7-cis-hexadecenoic acid; assay type: cell-based; details: 5.0 g/L in MRS liquid medium
Experimental: MRS media with various amounts of L-cysteine added were prepared to investigate their effect on the production of 7-cis-hexadecenoic acid by bifidobacteria. Specifically, the test was performed as follows. Bifidobacterium sp. strain JCM7042 (strain JCM7042) was used as the Bifidobacterium. L-cysteine hydrochloride monohydrate was added at 0.001 g/L, 0.01 g/L, 0.1 g/L, 0.5 g/L, 1.0 g/L, and 5.0 g/L to the MRS liquid medium with the composition shown in Table 1 to prepare L-cysteine-containing MRS liquid media. These MRS liquid media with L-cysteine and the control MRS liquid medium (without added L-cysteine) were cultured in the same manner as in Example 1. Using the same methods and conditions as in Example 1, the 7-cis-hexadecenoic acid in each culture solution was quantified by gas chromatography (GC) analysis.

Row | Compound | production of 7-cis-hexadecenoic acid
23 | Cl.N[C@@H](CS)C(=O)O.O [L-Cysteine Hydrochloride (1-hydrate)] | greatly inhibited

test system: Staphylococcus epidermidis; experiment: not given; details: reported in Non Patent Literature 1; cited from earlier work

Row | Compound | antibacterial activity against Staphylococcus epidermidis
24 | CCCCCCCCC/C=C\CCCCC(=O)O [sapienic acid] | not against Staphylococcus epidermidis

test system: Staphylococcus aureus; experiment: not given; details: 7-cis-hexadecenoic acid itself; cited from earlier work

Row | Compound | MIC against Staphylococcus aureus
25 | CCCCCCCC/C=C\CCCCCC(=O)O [7-cis-hexadecenoic acid] | about 3 μg/mL
